Assay results reported in ChEMBL document CHEMBL3352580, “Teucrium polium phenylethanol and iridoid glycoside characterization and flavonoid inhibition of biofilm-forming Staphylococcus aureus” (2015).
Activity calls are given as the source filed them. The rule behind the calls is not given here.

What was measured:
[1] = test system: Staphylococcus aureus; assay: Inhibition of biofilm formation in Staphylococcus aureus AH133 transformed with GFP assessed as zone of inhibition at 16 mg/ml after 24 hrs by confocal laser scanning microscopy; format: functional; details: for zone of inhibition at 16000 µg/mL: AH133, 24 h, read-out: IZ
[2] = test system: Staphylococcus aureus; assay: Inhibition of biofilm formation in Staphylococcus aureus AH133 transformed with GFP assessed as zone of inhibition at 10 to 20 ug/disc after 24 hrs by confocal laser scanning microscopy; format: functional, organism-based
[3] = test system: Staphylococcus aureus; assay: Inhibition of biofilm formation in Staphylococcus aureus AH133 transformed with GFP assessed as zone of inhibition at 40 to 80 ug/disc after 24 hrs by confocal laser scanning microscopy; format: functional, organism-based
[4] = test system: Staphylococcus aureus; assay: Inhibition of biofilm formation in Staphylococcus aureus AH133 transformed with GFP assessed as reduction in recovery of CFU at 80 ug/disc after 24 hrs by confocal laser scanning microscopy; format: functional, organism-based

| Compound | inhibition [1] | inhibition [2] | inhibition [3] | inhibition [4] | zone of inhibition at 16000 µg/mL [1] [mm] |
| --- | --- | --- | --- | --- | --- |
| CC1(C)S[C@@H]2[C@H](NC(=O)[C@H](N)c3ccccc3)C(=O)N2[C@H]1C(=O)O | Active |  |  |  |  |
| O=c1cc(-c2ccc(O)c(O)c2)oc2cc(O)c(O)c(O)c12 [6-HYDROXYLUTEOLIN] |  | inactive | Active | Active | 8 |
| COc1cc2oc(-c3ccc(O)c(O)c3)cc(=O)c2c(O)c1OC [CIRSILIOL] |  | inactive | Active | Active | 10.3 |
